According to patent publication US9428732B2, “Compositions and methods for differentiating pluripotent stem cells into primitive blood cells and uses thereof” (Primorigen Biosciences, Inc., priority 2011, dated 2016):

Tests used:
Format in all cases: cell-based, human
[1] = tested on: ES and iPS cells; test: Small molecule screen, FACS of cells differentiated from pluripotent stem cells; conditions: relative to DMSO control, DEAB 10 μM, rapamycin 0.1 μM
Protocol: (§1) Cells from the differentiation cultures were collected at time points indicated and washed in phosphate-buffered saline (PBS) supplemented with 2% FBS. Adherent cells were individualized using TrypLE (Life Technologies, Carlsbad Calif.), passed through a 27.5-gauge needle and filtered through a 40-70 μm cell strainer (BD Falcon, San Diego, Calif., www.bdbiosciences.com). Cells were treated with 7-aminoactinomycin D (7AAD) before analysis, and positive cells were gated out of results. Cells were stained with fluorescence-conjugated antibodies for the hematopoietic stem and progenitor cell markers CD45, CD43, CD34, CD38, CD90; CD45RA. Cells were analyzed on a FACS Canto (BD, Franklin Lakes, N.J., www.bd.com).
A small molecule screen was performed to identify compounds that improve the output of hematopoietic progenitor cells (HPCs; CD45+, CD43+, CD34+) and phenotypic hematopoietic stem cells (HSCs; CD45+, CD43+, CD34+, CD38−, CD90+, CD45RA−) differentiated from pluripotent stem cells. Molecules targeting pathways known or suspected of being important in hematopoiesis were screened. […] Cells were analyzed using fluorescence activated cell sorting (FACS; FIGS. 3A, 3B, and 3C) and CFU-GEMM assays (FIG. 3D). […]

[2] = tested on: ES and iPS cells; test: Small molecule screen, CFU-GEMM assays of myeloid progenitors; conditions: relative to DMSO control; DEAB 10 μM, rapamycin 0.1 μM; FIG. 3D
Protocol: The differentiation cultures were trypsinized at the indicated time points and single-cell suspensions were generated following trypsinization. For the Colony Forming Unit (CFU) assays using methyl cellulose cultures, 25% of the cells were plated in 2 ml of MethoCult H4435 (STEMCELL Technologies, Vancouver, BC) in six-well plates. Alternatively, sorted CD45+, CD43+, CD34+, 7AAD-cells were sorted and plated at 500 cells per 2 ml Methocult media. Cells were incubated for 14 days in a humidified incubator at 37° C. with 5% CO2 and evaluated for colonies by bright-field microscopy (Zeiss (Oberkochen, Germany, www.zeiss.com) Axiovert 200 with a Zeiss Axiocam), Cells were resuspended in PBS supplemented with 2% FBS. For the lymphoid myeloid differentiation assays, either CD45+, CD43+, CD34+, 7AAD-hematopoietic progenitors, or CD45+, CD43+, CD34+, CD38−, CD90+, CD45RA− phenotypic HSCs were plated at 20-40 cells per well onto OP9 and OP9delta feeder lines for B-cell and T-cell differentiation, respectively, as previously described (Nozad Charoudeh H, Tang Y, Cheng M, Cilio C M, Jacobsen S E, Sitnicka E., Identification of an NK/T cell-restricted progenitor in adult bone marrow contributing to bone marrow- and thymic-dependent NK cell, Blood, 2010 Jul. 15; 116(2):183-92. NK cell differentiation as well as myeloid cell differentiation was also detected in this differentiation system. […]

[3] = tested on: Pluripotent stem cells (iPS and ES); test: Effects of DEAB on blood cell phenotypes, flow cytometry at Day 16; conditions: DEAB 10 uM vs DMSO
Protocol: as §1
Cells were counted using the FACS cell counter feature (BD) or by cytometer using a bright-field microscope to obtain viable cell numbers. The total numbers of cells of each subpopulation were calculated by multiplying the number of cells by the proportion of cells of that lineage as determined by flow cytometry. Statistical analyses of data points and error bars of this study show mean and standard deviation, with statistical significance assessed by the Student's t-test.
From Example 1, DEAB was selected to move forward into an experiment further establishing the phenotypes of blood cells emerging from the differentiation in order to identify at what stage of differentiation DEAB may exert its effects. Pluripotent stem cells (iPS and ES) were grown and induced to produce embryoid bodies on Day 8 as described. The EBs were then exposed to Differentiation Medium 1 for a total of 8 days with partial medium changes made every other day as described. Cells were harvested on Day 16 and washed in phosphate-buffered saline (PBS) supplemented with 2% FBS. Adherent cells were individualized using TrypLE (Life Technologies, Carlsbad Calif.), passed through a 27.5-gauge needle and filtered through a 40-70 μm cell strainer (BD Falcon, San Diego, Calif., www.bdbiosciences.com). Cells were treated with 7-aminoactinomycin D before analysis and positive cells were gated out of results. Cells were stained with fluorescence conjugated antibodies for the hematopoietic stem and progenitor cell markers CD45, CD43, CD34, CD38, CD90, CD45RA. Cells were analyzed on an FACS Canto (BD, Franklin Lakes, N.J., www.bd.com).

CCN(CC)c1ccc(C=O)cc1 [DEAB, 4-diethylaminobenzaldehyde]
output of total blood cells (CD45+, CD43+) ([1]; FIG. 3C): increased
output of HSCs (CD45+, CD43+, CD34+, CD38−, CD90+, CD45RA−) ([1]; FIGS. 3A and B): increased
output of myeloid progenitors (CFU/BFU) [2]: increased
blood cells (CD45+, CD43+) ([3]; Day 16): modestly higher values
hematopoietic progenitor cells (CD45+, CD43+, CD34+) ([3]; Day 16): modestly higher values
population of cells exhibiting a hematopoietic stem cell phenotype (CD45+, CD43+, CD34+, CD38−, CD90+, CD45RA−) ([3]; Day 16): substantial improvement
total viable cells ([3]; Day 16): modestly higher values
increase in generation of the phenotypic stem cell phenotype ([3]; FIGS. 4B and 4D): over 3 fold
